“Also recorded” adds a separate entry of the source. Where two headings read alike, the source gives them in different places.
Legend:
C-RAF Y340D/Y341D kinase = C-RAF Y340D/Y341D kinase (Homo sapiens (Human), UniProt P04049, Y340D/Y341D); experiment: LanthaScreen Eu kinase binding assay (C-RAF); conditions: tracer 178 competition, 5 hours
B-RAF^V600E kinase = B-RAF^V600E kinase (Homo sapiens (Human), UniProt P15056, V600E); experiment: LanthaScreen Eu kinase binding assay (B-RAF V600E); conditions: tracer 178 competition, 5 hours
[1] = test system: C-RAF-mediated ERK activation in B-RAF^WT IPC-298 cells (NRAS^Q61L); experiment: IPC-298 AlphaScreen SureFire pERK1/2 cellular assay; format: cell-based, human; conditions: 1 hour treatment, relative to reference compound Dabrafenib
[2] = test system: ERK phosphorylation in A375 cells (B-RAF^V600E); experiment: A375 AlphaScreen SureFire pERK1/2 cellular assay; format: cell-based; conditions: Homo sapiens, A-375, 0.5 h, 30 minutes treatment
[3] = test system: ERK phosphorylation in WiDr cells (B-RAF^V600E); experiment: WiDr AlphaScreen SureFire pERK1/2 cellular assay; format: cell-based; conditions: Homo sapiens
[4] = IC50 category, read-out: CRAF binding affinity
[5] = IC50 category, read-out: BRAF^V600E binding affinity
[6] = read-out: A375 pERK inhibition IC50
[7] = read-out: A375 pERK inhibition category
[8] = 1 hr treatment, read-out: WiDr pERK inhibition category 1 hr
[9] = 24 hrs treatment, read-out: WiDr pERK inhibition category 24 hrs
[10] = read-out: CRAF binding affinity IC50
[11] = read-out: BRAF^V600E binding affinity IC50

C-RAF Y340D/Y341D kinase, sequence (P04049 306-648 Y340D/Y341D): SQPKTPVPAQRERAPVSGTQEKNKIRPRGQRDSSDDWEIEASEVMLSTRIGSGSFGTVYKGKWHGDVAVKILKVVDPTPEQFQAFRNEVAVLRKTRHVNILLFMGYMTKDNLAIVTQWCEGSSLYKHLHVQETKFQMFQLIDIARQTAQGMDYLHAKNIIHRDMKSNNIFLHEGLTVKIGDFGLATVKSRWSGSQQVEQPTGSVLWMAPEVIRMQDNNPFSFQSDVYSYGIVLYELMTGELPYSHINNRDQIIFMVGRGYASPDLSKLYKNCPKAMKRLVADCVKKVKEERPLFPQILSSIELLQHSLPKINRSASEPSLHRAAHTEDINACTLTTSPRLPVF
B-RAF^V600E kinase, sequence (P15056 whole entry V600E): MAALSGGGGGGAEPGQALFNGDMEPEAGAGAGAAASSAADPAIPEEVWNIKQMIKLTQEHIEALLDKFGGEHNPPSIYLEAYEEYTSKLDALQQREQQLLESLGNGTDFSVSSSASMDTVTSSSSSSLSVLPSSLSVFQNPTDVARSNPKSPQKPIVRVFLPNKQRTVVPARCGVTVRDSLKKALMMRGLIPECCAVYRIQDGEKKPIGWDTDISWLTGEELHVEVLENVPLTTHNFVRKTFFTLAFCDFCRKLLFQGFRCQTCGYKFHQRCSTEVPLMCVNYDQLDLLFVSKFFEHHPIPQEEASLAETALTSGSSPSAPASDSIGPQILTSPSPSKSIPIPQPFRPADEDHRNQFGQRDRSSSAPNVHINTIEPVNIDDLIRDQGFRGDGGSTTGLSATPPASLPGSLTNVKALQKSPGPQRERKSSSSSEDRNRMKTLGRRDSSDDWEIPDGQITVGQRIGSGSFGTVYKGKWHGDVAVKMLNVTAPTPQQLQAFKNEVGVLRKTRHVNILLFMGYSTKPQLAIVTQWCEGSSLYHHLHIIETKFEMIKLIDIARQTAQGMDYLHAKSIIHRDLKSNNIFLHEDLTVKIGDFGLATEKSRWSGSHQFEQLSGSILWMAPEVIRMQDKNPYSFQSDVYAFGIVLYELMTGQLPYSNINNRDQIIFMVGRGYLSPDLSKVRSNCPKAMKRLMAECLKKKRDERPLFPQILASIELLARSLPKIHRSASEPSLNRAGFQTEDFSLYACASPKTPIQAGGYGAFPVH

Structure (SMILES)	IC50 (C-RAF Y340D/Y341D kinase; [4]) [nM]	IC50 (B-RAF^V600E kinase; [5]) [nM]	IC50 [2, 7] [nM]	paradoxical activation of MAPK pathway (ERK phosphorylation) [1]	other results
CS(=O)(=O)c1ccc(-c2cnc(C3COc4ccc(Oc5ccnc6c5CCC(=O)N6)cc4C3)[nH]2)cc1 (stereo not drawn) [Example 12, 5-[3-[5-(4-methylsulfonylphenyl)-1H-imidazol-2-yl]chroman-6-yl]oxy-3,4-dihydro-1H-1,8-naphthyridin-2-one]	4 to 100	> 100	–	–	–
Cc1cc(Oc2ccc3c(c2)CC(c2ncc(-c4ccccc4)[nH]2)CO3)ccn1 (stereo not drawn) [Example 21, 2-Methyl-4-[3-(5-phenyl-1H-imidazol-2-yl)chroman-6-yl]oxy-pyridine]	4 to 100	4 to 100	–	–	–
O=C1CCc2c(Oc3ccc4c(c3)CC(c3nc5cccc(Cl)c5[nH]3)CO4)ccnc2N1 (stereo not drawn) [Example 2, 5-[3-(7-chloro-1H-benzimidazol-2-yl)chroman-6-yl]oxy-3,4-dihydro-1H-1,8-naphthyridin-2-one]	4 to 100	4 to 100	70 to 300	–	–
O=C1CCc2c(Oc3ccc4c(c3)CC(c3nc(-c5ccccc5)c[nH]3)CO4)ccnc2N1 (stereo not drawn) [Example 3, 5-[3-(4-phenyl-1H-imidazol-2-yl)chroman-6-yl]oxy-3,4-dihydro-1H-1,8-naphthyridin-2-one]	–	–	–	reduced paradoxical activation of MAPK pathway in comparison to Dabrafenib; also recorded: reduced paradoxical activity	–
CC(C)(C)c1c[nH]c(C2COc3ccc(Oc4ccnc5c4CCC(=O)N5)cc3C2)n1 (stereo not drawn) [Example 5, 5-[3-(4-tert-butyl-1H-imidazol-2-yl)chroman-6-yl]oxy-3,4-dihydro-1H-1,8-naphthyridin-2-one]	< 4	4 to 100	–	–	–
O=C1CCc2c(Oc3ccc4c(c3)CC(c3nc(-c5ccccc5)no3)CO4)ccnc2N1 (stereo not drawn) [Example 17, 5-[3-(3-phenyl-1,2,4-oxadiazol-5-yl)chroman-6-yl]oxy-3,4-dihydro-1H-1,8-naphthyridin-2-one]	4 to 100	4 to 100	–	–	–
O=C1CCc2c(Oc3ccc4c(c3)C=C(c3nc(-c5ccccc5)c[nH]3)CO4)ccnc2N1 [Example 16, 5-[[3-(4-phenyl-1H-imidazol-2-yl)-2H-chromen-6-yl]oxy]-3,4-dihydro-1H-1,8-naphthyridin-2-one]	< 4	4 to 100	> 300	–	–
O=C1CCc2c(Oc3ccc4c(c3)CC(c3ncc(-c5cccc(Cl)c5)[nH]3)CO4)ccnc2N1 (stereo not drawn) [Example 9, 5-[3-[5-(3-chlorophenyl)-1H-imidazol-2-yl]chroman-6-yl]oxy-3,4-dihydro-1H-1,8-naphthyridin-2-one]	< 4	< 4	–	–	–
O=C1CCc2c(Oc3ccc4c(c3)CC(c3ncc(-c5cccnc5)[nH]3)CO4)ccnc2N1 (stereo not drawn) [Example 11, 5-[3-[5-(3-pyridyl)-1H-imidazol-2-yl]chroman-6-yl]oxy-3,4-dihydro-1H-1,8-naphthyridin-2-one]	< 4	< 4	–	–	–
O=C1CCc2c(Oc3ccc4c(c3)CC(c3ncc(-c5ccc6c(c5)OCO6)[nH]3)CO4)ccnc2N1 (stereo not drawn) [Example 14, 5-[3-[5-(1,3-benzodioxol-5-yl)-1H-imidazol-2-yl]chroman-6-yl]oxy-3,4-dihydro-1H-1,8-naphthyridin-2-one]	< 4	< 4	–	–	–

Now from value to compound, other results behind:

IC50 (C-RAF Y340D/Y341D kinase; [4]) [nM]	IC50 (B-RAF^V600E kinase; [5]) [nM]	IC50 [2, 7] [nM]	Structure (SMILES)	paradoxical activation of MAPK pathway (ERK phosphorylation) [1]	other results
< 4	< 4	70 to 300	O=C1CCc2c(Oc3ccc4c(c3)O[C@@H](c3nc(-c5ccccc5)c[nH]3)CO4)ccnc2N1 [Example 19, 5-[[(3S)-3-(4-phenyl-1H-imidazol-2-yl)-2,3-dihydro-1,4-benzodioxin-6-yl]oxy]-3,4-dihydro-1H-1,8-naphthyridin-2-one]	reduced paradoxical activity	IC50 [2, 6]: 155 nM; IC50 [3, 8]: 70 to 300 nM; IC50 [3, 9]: > 300 nM
< 4	< 4	–	O=C1CCc2c(Oc3ccc4c(c3)CC(c3ncc(-c5ccc(F)cc5)[nH]3)CO4)ccnc2N1 (stereo not drawn) [Example 13, 5-[3-[5-(4-fluorophenyl)-1H-imidazol-2-yl]chroman-6-yl]oxy-3,4-dihydro-1H-1,8-naphthyridin-2-one]	–	–
< 4	4 to 100	–	O=C1CCc2c(Oc3ccc4c(c3)CC(c3ncc(-c5ccc6c(c5)OCCO6)[nH]3)CO4)ccnc2N1 (stereo not drawn) [Example 15, 5-[3-[5-(2,3-dihydro-1,4-benzodioxin-6-yl)-1H-imidazol-2-yl]chroman-6-yl]oxy-3,4-dihydro-1H-1,8-naphthyridin-2-one]	–	–
< 4	< 4	> 300	O=C1CCc2c(Oc3ccc4c(c3)CC(c3cc(-c5ccccc5)[nH]n3)CO4)ccnc2N1 (stereo not drawn) [Example 18, 5-[3-(5-phenyl-1H-pyrazol-3-yl)chroman-6-yl]oxy-3,4-dihydro-1H-1,8-naphthyridin-2-one]	reduced paradoxical activity	–
< 4	< 4	–	O=C1CCc2c(Oc3ccc4c(c3)CC(c3nc(-c5coc6ccccc56)c[nH]3)CO4)ccnc2N1 (stereo not drawn) [Example 10, 5-[3-[4-(benzofuran-3-yl)-1H-imidazol-2-yl]chroman-6-yl]oxy-3,4-dihydro-1H-1,8-naphthyridin-2-one]	–	–
< 4	< 4	< 70	O=C1CCc2c(Oc3ccc4c(c3)CC(c3nc(-c5ccsc5)c[nH]3)CO4)ccnc2N1 (stereo not drawn) [Example 6, 5-[3-[4-(3-thienyl)-1H-imidazol-2-yl]chroman-6-yl]oxy-3,4-dihydro-1H-1,8-naphthyridin-2-one]	reduced paradoxical activity	IC50 [2, 6]: 23.4 nM; IC50 (C-RAF Y340D/Y341D kinase; [10]): 0.4 nM; IC50 (B-RAF^V600E kinase; [11]): 1 nM
< 4	< 4	–	O=C1CCc2c(Oc3ccc4c(c3)CC(c3nc5ccccc5[nH]3)CO4)ccnc2N1 (stereo not drawn) [Example 1, 5-[3-(1H-benzimidazol-2-yl)chroman-6-yl]oxy-3,4-dihydro-1H-1,8-naphthyridin-2-one]	–	–
< 4	< 4	70 to 300	O=C1CCc2c(Oc3ccc4c(c3)O[C@H](c3nc(-c5ccccc5)c[nH]3)CO4)ccnc2N1 [Example 20, 5-[[(3R)-3-(4-phenyl-1H-imidazol-2-yl)-2,3-dihydro-1,4-benzodioxin-6-yl]oxy]-3,4-dihydro-1H-1,8-naphthyridin-2-one]	reduced paradoxical activity	IC50 [2, 6]: 282 nM; IC50 [3, 8]: 70 to 300 nM; IC50 [3, 9]: > 300 nM
< 4	< 4	< 70	O=C1CCc2c(Oc3ccc4c(c3)CC(c3nc(-c5cccs5)c[nH]3)CO4)ccnc2N1 (stereo not drawn) [Example 7, 5-[3-[4-(2-thienyl)-1H-imidazol-2-yl]chroman-6-yl]oxy-3,4-dihydro-1H-1,8-naphthyridin-2-one]	reduced paradoxical activity	IC50 (C-RAF Y340D/Y341D kinase; [10]): 0.5 nM; IC50 (B-RAF^V600E kinase; [11]): 1.1 nM
< 4	< 4	> 300	O=C1CCc2c(Oc3ccc4c(c3)CC(c3nc(-c5ccncc5)c[nH]3)CO4)ccnc2N1 (stereo not drawn) [Example 4, 5-[3-[4-(4-pyridyl)-1H-imidazol-2-yl]chroman-6-yl]oxy-3,4-dihydro-1H-1,8-naphthyridin-2-one]	reduced paradoxical activity	–
< 4	< 4	–	O=C1CCc2c(Oc3ccc4c(c3)CC(c3ncc(-c5ccccc5Cl)[nH]3)CO4)ccnc2N1 (stereo not drawn) [Example 8, 5-[3-[5-(2-chlorophenyl)-1H-imidazol-2-yl]chroman-6-yl]oxy-3,4-dihydro-1H-1,8-naphthyridin-2-one]	–	–
